# Measured values from patent publication US20260116868A1 (Arcus Biosciences, Inc., priority 2023, published 2026).
# Target: T1, Cbl-b (Homo sapiens, UniProt Q13191)
# T1 construct: biotin (biotinylated protein)
# Test: Cbl-b probe displacement HTRF binding assay
# Conditions: 0.4 nM Cbl-b, 150 nM BODIPY probe
# Procedure, shortened: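 Binding IC50 from four-parameter fit of HTRF signal loss, normalised to DMSO (0%) and no-protein (100%) wells. Biotinylated Cbl-b 0.4 nM was preincubated 60 min with compound (20-point 1:2 dilution) before 15 min with 150 nM BODIPY probe; Tb-streptavidin detection.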
# T1 sequence (Q13191 whole entry, species assumed): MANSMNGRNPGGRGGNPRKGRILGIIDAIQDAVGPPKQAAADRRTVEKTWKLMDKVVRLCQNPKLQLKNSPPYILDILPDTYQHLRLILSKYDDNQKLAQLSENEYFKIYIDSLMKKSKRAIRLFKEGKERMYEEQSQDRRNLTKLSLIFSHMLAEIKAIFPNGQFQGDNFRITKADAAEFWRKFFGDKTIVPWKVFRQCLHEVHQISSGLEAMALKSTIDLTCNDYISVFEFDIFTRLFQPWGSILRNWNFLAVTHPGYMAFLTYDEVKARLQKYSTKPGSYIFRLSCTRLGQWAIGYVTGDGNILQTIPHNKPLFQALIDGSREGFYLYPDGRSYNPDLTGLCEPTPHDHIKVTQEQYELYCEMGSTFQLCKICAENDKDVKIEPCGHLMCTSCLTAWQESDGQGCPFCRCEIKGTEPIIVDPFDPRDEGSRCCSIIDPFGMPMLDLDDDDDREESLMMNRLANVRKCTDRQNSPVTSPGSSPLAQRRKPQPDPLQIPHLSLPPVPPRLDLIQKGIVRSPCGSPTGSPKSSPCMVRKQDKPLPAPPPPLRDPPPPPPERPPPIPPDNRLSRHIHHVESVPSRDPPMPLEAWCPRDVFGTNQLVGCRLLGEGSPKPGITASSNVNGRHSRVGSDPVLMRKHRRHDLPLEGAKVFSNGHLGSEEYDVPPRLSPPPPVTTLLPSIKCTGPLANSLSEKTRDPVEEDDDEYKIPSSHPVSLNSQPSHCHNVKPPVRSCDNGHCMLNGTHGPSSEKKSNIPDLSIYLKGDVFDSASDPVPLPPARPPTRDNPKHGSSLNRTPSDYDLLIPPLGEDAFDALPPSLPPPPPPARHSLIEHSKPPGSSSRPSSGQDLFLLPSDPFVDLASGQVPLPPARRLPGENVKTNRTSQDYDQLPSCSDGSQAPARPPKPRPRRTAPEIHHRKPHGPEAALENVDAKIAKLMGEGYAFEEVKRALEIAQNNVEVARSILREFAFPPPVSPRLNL
row,IC50 [nM],SMILES
1,< 100,CO[C@@H](C)CNCc1cc(C(=O)Nc2cc(-c3c(F)cc(F)cc3C(=O)N3CC(F)(F)C3)cc(C3CC3)n2)c(=O)n(C2CC2)c1 [Example 367]
2,< 100,CC(C)Oc1cc(-c2ccc(Cl)cc2C(=O)N2CC(F)C2)cc(NC(=O)c2cc(CN[C@@H](C)C3CCC3)cn(C3CC3)c2=O)n1 [Example 256]
3,< 100,COc1cc(-c2ccc(OC(F)F)cc2C(=O)N2CC(F)(F)C2)cc(NC(=O)c2cc(CNC[C@H](C)OC)cn(C3CC3)c2=O)n1 [Example 334]
4,< 100,CO[C@@H](C)CNCc1cc(C(=O)Nc2cc(-c3c(F)cc(Cl)cc3C(=O)N3CC(F)(F)C3)cc(C3CC3)n2)c(=O)n(C)c1 [Example 177]
5,< 100,CCn1cc(CNCC2CC2)cc(C(=O)Nc2cc(-c3ccc(C#N)cc3C(=O)N3CC(F)(F)C3)cc(C3CC3)n2)c1=O [Example 189]
6,< 100,"CCOc1cc(-c2c(F)cc(C#N)cc2C(=O)N2CC(F)(F)C2)cc(NC(=O)c2cc(CNC[C@H](C)OC)cn(C)c2=O)n1 [Example 120, N-[4-[4-cyano-2-(3,3-difluoroazetidine-1-carbonyl)-6-fluorophenyl]-6-ethoxypyridin-2-yl]-5-[[[(2S)-2-methoxypropyl]amino]methyl]-1-methyl-2-oxopyridine-3-carboxamide]"
7,< 100,CCn1cc(CNC[C@@H]2CCCO2)cc(C(=O)Nc2cc(-c3ccc(C#N)cc3C(=O)N3CC(F)(F)C3)cc(C3CC3)n2)c1=O [Example 186]
8,< 100,CC(C)Oc1cc(-c2ccc(OC(F)F)cc2C(=O)N2CC(F)(F)C2)cc(NC(=O)c2cc(CNC[C@@H]3CCCO3)cn(C3CC3)c2=O)n1 [Example 209]
9,< 100,COC[C@H](C)NCc1cc(C(=O)Nc2cc(-c3ccc(Cl)cc3C(=O)N3CC(F)(F)C3)cc(C3CC3)n2)c(=O)n(C2CC2)c1 [Example 372]

# The remaining lines, values behind:
row,SMILES,IC50 [nM]
1,"C[C@H]1CCCN(Cc2cc(C(=O)Nc3cc(C#N)cc(-c4ccc(F)cc4C(=O)N4CC(F)C4)c3)c(=O)n(C3CC3)c2)C1 [Example 66, N-{5-cyano-4′-fluoro-2′-[(3-fluoro-1-azetidinyl)carbonyl]-3-biphenylyl}-5-{[(S)-3-methyl-1-piperidyl]methyl}-1-cyclopropyl-2-oxo-1,2-dihydronicotinamide]",100 to 1000
2,"Cn1cnnc1-c1cc(F)ccc1-c1cc(NC(=O)c2cc(C3CC3)cn(C3CC3)c2=O)nc(C2CC2)c1 [Example 29, N-{6-Cyclopropyl-4-[4-fluoro-2-(4-methyl-4H-1,2,4-triazol-3-yl)phenyl]-2-pyridyl}-1-cyclopropyl-5-cyclopropyl-2-oxo-1,2-dihydronicotinamide]",100 to 1000
3,"C[C@H]1CCCN(Cc2cc(C(=O)Nc3cc(-c4ccc(F)cc4-c4nncn4C)cc(C4CC4)n3)c(=O)n(CC3CCC3)c2)C1 [Example 62, 1-(cyclobutylmethyl)-N-[6-cyclopropyl-4-[4-fluoro-2-(4-methyl-1,2,4-triazol-3-yl)phenyl]pyridin-2-yl]-5-[[(3S)-3-methylpiperidin-1-yl]methyl]-2-oxopyridine-3-carboxamide]",< 100
4,"Cn1ccnc1-c1cc(C#N)ccc1-c1cc(NC(=O)c2cc(CNCCOC(F)(F)F)cn(C3CC3)c2=O)nc(C2CC2)c1 [Example 40, N-{4-[4-cyano-2-(1-methyl-2-imidazolyl)phenyl]-6-cyclopropyl-2-pyridyl}-1-cyclopropyl-2-oxo-5-[(2-trifluoromethoxyethylamino)methyl]-1,2-dihydronicotinamide]",< 100
5,"COCCNCc1cc(C(=O)Nc2cc(-c3ccc(F)cc3-n3nncc3C)cc(C3CC3)n2)c(=O)n(C2CC2)c1 [Example 71, N-{6-cyclopropyl-4-[4-fluoro-2-(5-methyl-1H-1,2,3-triazol-1-yl)phenyl]-2-pyridyl}-1-cyclopropyl-5-[(2-methoxyethylamino)methyl]-2-oxo-1,2-dihydronicotinamide]",< 100

# Tested on: Jurkat cells
# Test: IL-2 secretion assay in Jurkat cells activated with CD3/CD28 T Cell Activator
# Type: cell-based
# Conditions: Homo sapiens; Jurkat cells, CD3/CD28 T Cell Activator, 24 h, IL-2 AlphaLISA; read-out: IL-2 Secretion (EC50)
# Description: Certain compounds were also evaluated in an IL-2 secretion assay. On the day of the assay, a 16 point, 1:2 master serial dilution of each compound was prepared in Opti-MEM to span a final concentration range of 10 μM to 300 pM. Assays were set up in CORNING® tissue culture-treated 384-well microplates containing 60 nL of each dilution. Jurkat cells grown in RPMI-1640 supplemented with 10% FBS, 1% Glutamax, and 1% Pen/Strep were collected, resuspended in Opti-MEM. 50,000 cells/well and added to the compound plates. After a short spin (1200 rpm for 1 min), the plates were incubated at 37° C. for 1 hour. The cells were activated by adding 15 μL of IMMUNOCULT™ Human CD3/CD28 T Cell Activator (STEMCELL Technologies) diluted in Opti-MEM. After 24 h of incubation at 37° C., aliquots of culture supernatants were transferred to OptiPlate-384 (PerkinElmer) microplates. The level of IL-2 secretion in the supernatants was then determined using the IL-2 (human) AlphaLISA Detection Kit (PerkinElmer) according to the manufacturer's recommendations. The AlphaLISA signal was measured using an EnVision plate reader (PerkinElmer). EC50 values were determined by fitting the data to a standard 4-parameter logistic equation. See Table 7 for data for select compounds (IL-2 Secretion (EC50)).
row,EC50 [nM],SMILES
1,1000 to 5000,"C[C@H]1CCCN(Cc2cc(C(=O)Nc3cc(C#N)cc(-c4ccc(F)cc4C(=O)N4CC(F)C4)c3)c(=O)n(C3CC3)c2)C1 [Example 66, N-{5-cyano-4′-fluoro-2′-[(3-fluoro-1-azetidinyl)carbonyl]-3-biphenylyl}-5-{[(S)-3-methyl-1-piperidyl]methyl}-1-cyclopropyl-2-oxo-1,2-dihydronicotinamide]"
2,1000 to 5000,"Cn1cnnc1-c1cc(F)ccc1-c1cc(NC(=O)c2cc(C3CC3)cn(C3CC3)c2=O)nc(C2CC2)c1 [Example 29, N-{6-Cyclopropyl-4-[4-fluoro-2-(4-methyl-4H-1,2,4-triazol-3-yl)phenyl]-2-pyridyl}-1-cyclopropyl-5-cyclopropyl-2-oxo-1,2-dihydronicotinamide]"
3,< 100,"C[C@H]1CCCN(Cc2cc(C(=O)Nc3cc(-c4ccc(F)cc4-c4nncn4C)cc(C4CC4)n3)c(=O)n(CC3CCC3)c2)C1 [Example 62, 1-(cyclobutylmethyl)-N-[6-cyclopropyl-4-[4-fluoro-2-(4-methyl-1,2,4-triazol-3-yl)phenyl]pyridin-2-yl]-5-[[(3S)-3-methylpiperidin-1-yl]methyl]-2-oxopyridine-3-carboxamide]"
4,100 to 1000,"Cn1ccnc1-c1cc(C#N)ccc1-c1cc(NC(=O)c2cc(CNCCOC(F)(F)F)cn(C3CC3)c2=O)nc(C2CC2)c1 [Example 40, N-{4-[4-cyano-2-(1-methyl-2-imidazolyl)phenyl]-6-cyclopropyl-2-pyridyl}-1-cyclopropyl-2-oxo-5-[(2-trifluoromethoxyethylamino)methyl]-1,2-dihydronicotinamide]"
5,< 100,"COCCNCc1cc(C(=O)Nc2cc(-c3ccc(F)cc3-n3nncc3C)cc(C3CC3)n2)c(=O)n(C2CC2)c1 [Example 71, N-{6-cyclopropyl-4-[4-fluoro-2-(5-methyl-1H-1,2,3-triazol-1-yl)phenyl]-2-pyridyl}-1-cyclopropyl-5-[(2-methoxyethylamino)methyl]-2-oxo-1,2-dihydronicotinamide]"
6,< 100,"CO[C@@H](C)CNCc1cc(C(=O)Nc2cc(-c3ccc(OC(F)F)cc3C(=O)N3CC(F)(F)C3)cc(C3CC3)n2)c(=O)n(C2CC2)c1 [Example 89, N-(6-cyclopropyl-4-{2-[(3,3-difluoro-1-azetidinyl)carbonyl]-4-difluoromethoxyphenyl}-2-pyridyl)-5-{[(S)-2-methoxypropylamino]methyl}-1-cyclopropyl-2-oxo-1,2-dihydronicotinamide]"
7,< 100,"O=C(Nc1cc(-c2ccc(Cl)cc2C(=O)N2CC(F)(F)C2)cc(C2CC2)n1)c1cc(CNC[C@@H]2CCCO2)cn(C2CC2)c1=O [Example 90, N-(4-{4-chloro-2-[(3,3-difluoro-1-azetidinyl)carbonyl]phenyl}-6-cyclopropyl-2-pyridyl)-5-[({[(S)-tetrahydro-2-furyl]methyl}amino)methyl]-1-cyclopropyl-2-oxo-1,2-dihydronicotinamide]"
8,< 100,"CCOc1cc(-c2ccc(Cl)cc2C(=O)N2CC(F)(F)C2)cc(NC(=O)c2cc(CNC[C@@H]3CCCO3)cn(C3CC3)c2=O)n1 [Example 91, N-(4-{4-chloro-2-[(3,3-difluoro-1-azetidinyl)carbonyl]phenyl}-6-ethoxy-2-pyridyl)-5-[({[(S)-tetrahydro-2-furyl]methyl}amino)methyl]-1-cyclopropyl-2-oxo-1,2-dihydronicotinamide]"
9,< 100,"COCCNCc1cc(C(=O)Nc2cc(-c3ccc(F)cc3C(=O)N3CC(F)(F)C3)cc(C3CC3)n2)c(=O)n(C2CC2)c1 [Example 68, N-(6-cyclopropyl-4-{2-[(3,3-difluoro-1-azetidinyl)carbonyl]-4-fluorophenyl}-2-pyridyl)-1-cyclopropyl-5-[(2-methoxyethylamino)methyl]-2-oxo-1,2-dihydronicotinamide]"
10,> 5000,"CO[C@@H](C)CNCc1cc(C(=O)Nc2cc(-c3ccc(OC(F)F)cc3C(=O)N3CC(F)(F)C3)cc(C3CC3)n2)c(=O)n(C)c1 [Example 87, N-[6-cyclopropyl-4-[2-(3,3-difluoroazetidine-1-carbonyl)-4-(difluoromethoxy)phenyl]pyridin-2-yl]-5-[[[(2S)-2-methoxypropyl]amino]methyl]-1-methyl-2-oxopyridine-3-carboxamide]"
11,< 100,"CC(C)Nc1cc(-c2ccc(Cl)cc2C(=O)N2CC(F)(F)C2)cc(NC(=O)c2cc(CNC[C@@H]3CCCO3)cn(C3CC3)c2=O)n1 [Example 92, N-(4-{4-chloro-2-[(3,3-difluoro-1-azetidinyl)carbonyl]phenyl}-6-(isopropylamino)-2-pyridyl)-5-[({[(S)-tetrahydro-2-furyl]methyl}amino)methyl]-1-cyclopropyl-2-oxo-1,2-dihydronicotinamide]"
12,< 100,"CC(C)CNCc1cc(C(=O)Nc2cc(-c3ccc(OC(F)F)cc3C(=O)N3CC(F)(F)C3)cc(C3CC3)n2)c(=O)n(C2CC2)c1 [Example 85, N-(6-cyclopropyl-4-{2-[(3,3-difluoro-1-azetidinyl)carbonyl]-4-difluoromethoxyphenyl}-2-pyridyl)-1-cyclopropyl-5-[(isobutylamino)methyl]-2-oxo-1,2-dihydronicotinamide]"
13,< 100,"COCCNCc1cc(C(=O)Nc2cc(-c3ccc(F)cc3C(=O)N3CC(F)C3)cc(C3CC3)n2)c(=O)n(C2CC2)c1 [Example 67, N-(6-cyclopropyl-4-{4-fluoro-2-[(3-fluoro-1-azetidinyl)carbonyl]phenyl}-2-pyridyl)-1-cyclopropyl-5-[(2-methoxyethylamino)methyl]-2-oxo-1,2-dihydronicotinamide]"
14,< 100,CO[C@@H](C)CNCc1cc(C(=O)Nc2cc(-c3ccc(Cl)cc3C(=O)N3CC(F)(F)C3)cc(OCC(F)F)n2)c(=O)n(C2CC2)c1 [Example 83]
15,< 100,"Cn1cc(CNC[C@@H]2CCCO2)cc(C(=O)Nc2cc(-c3ccc(OC(F)F)cc3C(=O)N3CC(F)(F)C3)cc(C3CC3)n2)c1=O [Example 88, N-[6-cyclopropyl-4-[2-(3,3-difluoroazetidine-1-carbonyl)-4-(difluoromethoxy)phenyl]pyridin-2-yl]-1-methyl-2-oxo-5-[[[(2S)-oxolan-2-yl]methylamino]methyl]pyridine-3-carboxamide]"
16,< 100,CO[C@@H](C)CNCc1cc(C(=O)Nc2cc(-c3ccc(Cl)cc3C(=O)N3CC(F)(F)C3)cc(OCC(F)(F)F)n2)c(=O)n(C2CC2)c1 [Example 82]
17,< 100,"N#Cc1ccc(-c2cc(NC(=O)c3cc(CNC[C@@H]4CCCO4)cn(CC(F)(F)F)c3=O)nc(C3CC3)c2)c(C(=O)N2CC(F)(F)C2)c1 [Example 93, N-[4-[4-cyano-2-(3,3-difluoroazetidine-1-carbonyl)phenyl]-6-cyclopropylpyridin-2-yl]-2-oxo-5-[[[(2S)-oxolan-2-yl]methylamino]methyl]-1-(2,2,2-trifluoroethyl)pyridine-3-carboxamide]"
